Legend:
[1] = Plasma protein binding by equilibrium dialysis; assay type: in vitro ADME; settings: 37° C., 6 h (2 at 5 μM), read-out: free fraction in plasma
Method: Plasma and brain binding. Plasma protein binding was determined by equilibrium dialysis using a Thermo Scientific™ RED Device per the manufacturer's protocol. Each sample was prepared by addition of 2 into 100 μL plasma with final concentration of 5 μM (0.1% (v/v) DMSO). 1×PBS was used as dialysis buffer and was added into the buffer chamber. The plate was incubated with shaking at 37° C. for 6 h. The concentration of 2 in the plasma and buffer compartments was determined as described in Quantitation of 2 in Mouse Plasma and Brain. The free fraction was calculated as [buffer]/[plasma].

[2] = system: DDPAC I17T MAPT mini-gene (exon 10 splicing); assay: 4R/3R MAPT mRNA by RT-qPCR, HeLa cells transfected with DDPAC I17T mini-gene; assay type: cell-based; settings: ASO 0.5 μM
Method: (§1) RNA Isolation and Real-Time Quantitative PCR (RT-qPCR). HeLa cells were treated as described in the Luciferase Reporter assay to Study Exon 10 Alternative Splicing. LAN5 cells were seeded in 12-well plates at 0.2×10^6 cells per well, treated with compound or ASO, and incubated for 48 h. Compound stocks prepared in DMSO and ASO stocks prepared in water were diluted in growth medium and added to cells. Total RNA was extracted from cells and analyzed via RT-qPCR to determine levels of 3R and 4R tau mRNA. In brief, the cells were washed with 1×DPBS and then lysed in the well using 300 μL of Lysis Buffer provided in a Quick-RNA MiniPrep kit (Zymo Research), which was used to extract total RNA per the manufacturer's protocol including the on-column DNase I digestion. The concentration of total RNA was measured by NanoDrop 2000 (Thermo Fisher Scientific). Only samples with OD260/OD280>1.8 were carried forward for analysis. Reverse transcription (RT) was carried out on 200 ng of total RNA using a qScript cDNA synthesis kit (QuantaBio) in a total volume of 10 μL according to the manufacturer's protocol. An Applied Biosystems QS5 384-well PCR system was used to complete qPCR reactions with Power SYBR Green Master Mix (Life Technologies), 600 nM each primer (Table S3), 20 ng of cDNA (1 μL of the RT reaction), in a total volume of 33 μL. Technical triplicates (10 μL each) were aliquoted into 384-well qPCR plates (Applied biosystems, 4483285). Subsequent qPCR analysis was performed using an Applied Biosystems QS5 384-well PCR system (software v.1.3.0). 4R/3R ratio were analyzed using ΔΔCt method using Equation 2: […]
(§2) where ΔCt 4R or ΔCt 3R is the difference between the Ct values for the 4R or 3R MAPT mRNA and a housekeeping gene (18S rRNA) in total RNA from cells.

[3] = system: MAPT exon 10 splicing in LAN5 cells; assay: 4R/3R endogenous MAPT mRNA by RT-qPCR in LAN5 neuroblastoma cells; assay type: cell-based; settings: for PSI10 in all cell lines: ASO, all cell lines of FIGS. 12A-12C (LAN5, HeLa mini-genes, htau primary neurons)
Method: as §1, §2

[4] = system: WT I17T MAPT mini-gene (exon 10 splicing); assay: 4R/3R MAPT mRNA by RT-qPCR, HeLa cells transfected with WT I17T mini-gene; assay type: cell-based; settings: ASO 0.5 μM
Method: as §1, §2

LAN5 transcriptome = assay: RNA-seq transcriptome-wide selectivity in LAN5 cells; assay type: cell-based, human
Method: RNA-Seq. LAN5 cells in 12-well plate (~60% confluency) were treated with 2 (1.5 μM), 0.1% (v/v) DMSO (vehicle), 4R-to-3R tau ASO (0.5 μM), or scrambled ASO (0.5 μM) for 48 h. Total RNA was extracted using an RNeasy Mini Kit (Qiagen) per the manufacturer's protocol. Next, rRNA was depleted using NEBNext rRNA depletion modules (E6310L, New England Biosciences) and prepared with NEBNext Ultra II Dir RNA Lib Prep Kit (E7760S, New England Biosciences) according to the manufacturer's protocol. The prepared libraries were processed with NextSeq 500/550 High Output Kit v2.5 (Illumina, 20024907) per the manufacturer's protocol and then sequenced on a NextSeq 500. After sequencing, the BCL files were converted to FASTQ files using basemount/0.12.8.1516 and bcl2fastq/2.17.1.14.^33 The sequencing depth was over 82 million for each sample.
FastQC^34 and RSeQC^35 were used to determine the quality of reads and any overrepresentation of sequences. HISAT2^36 was used to map the reads to the reference human genome (hg19), and the output SAM files were converted to BAM files and sorted by index. Kallisto^37 and NCBI reference sequences (RefSeq)^38 were used for gene quantification to calculate transcripts per million (TPM). Differentially expressed genes were detected with Sleuth^39 and determined by a multiple test corrected p-value<0.05. Splicing event PSI values were quantitated using MISO.^40

[5] = system: MAPT exon 10 splicing in primary neurons from htau mice; assay: 4R/3R MAPT mRNA by RT-qPCR in primary neurons from htau mice; assay type: cell-based, human MAPT in htau transgenic mouse neurons; settings: 48 h
Method: as §1
Isolation and Treatment of Primary Neurons from Humanized tau (hTau) Transgenic Mice. All animal studies were completed as approved by the Scripps Florida Institutional Animal Care and Use Committee. […]

Row | Molecule | fraction unbound at 6 h [1] | effect on 4R/3R ratio [2] | PSI10 in all cell lines [3] | effect on 4R/3R ratio [4] | expression of MAPT gene (LAN5 transcriptome; 2 at 1.5 μM or ASO 0.5 μM) | alternative splicing of MAPT exons (exon 10) (LAN5 transcriptome; 2 at 1.5 μM or tau ASO 0.5 μM) | genes unchanged, percent (LAN5 transcriptome; tau ASO 0.5 μM, 48 h) [%] | reduction of 4R/3R MAPT ratio ([3]; ASO 0.5 μM, LAN5, 48 h) | 4R/3R ratio and PSI10 [5]
1 | NC(=O)N1c2ccccc2C=Cc2ccccc21 [Carbamazepine, reference compound] | 0.377 ± 0.042 | – | – | – | – | – | – | – | –
2 | scrambled ASO: scrambled ASO 5′-CTGTCTGACGTTCTTTGT-3′ (SEQ ID NO: 2), negative control (chemistry not given here) [reference compound] | – | not scrambled ASO altered the 4R/3R ratio | not scrambled ASO was also downregulated | not scrambled ASO altered the 4R/3R ratio | – | – | – | – | –
3 | tau ASO: Vivo-Morpholino antisense oligonucleotide targeting the MAPT exon-10-intron junction hairpin, 5′-TGAAGGTACTCACACTGCCGC-3′ (SEQ ID NO: 1) (all phosphorodiamidate morpholino (PMO); Vivo-Morpholino: morpholino with attached delivery moiety, further chemistry not fully specified) [reference compound] | – | altered the 4R/3R ratio | also downregulated in all cell lines | altered the 4R/3R ratio | Neither 2 nor the ASO altered the expression of MAPT gene | only one significantly reduced | 99.97 | ~ 82% | dose dependent reduction

Source: patent US20260308158A1, “TARGETING RNAS ASSOCIATED WITH TAUOPATHIES WITH SMALL MOLECULES” (University of Florida Research Foundation, Incorporated, priority 2023, published 2026)
